Test results published in patent publication US8338475B2, “Anti-proliferative pharmaceutical composition” (BioCis Pharma Oy, priority 2003, dated 2012).

Assays:
HSF (skin fibroblast) = assay: Proliferation assay (CellTiter 96), HSF cells; assay type: cell-based, human; conditions: pH 6.5, 44 h, cis-UCA 10 mM, CPT 2 μM, 15,000 cells per 100 μl
Source text: (§1) Transformed tumour cell lines WM 266-4 and A2058 (cutaneous melanoma), HT-1080 (epithelial fibrosarcoma), HeLa (epithelial adenocarcinoma of cervix), HK293 (kidney epithelial cells) and non-transformed cell line HSF (skin fibroblast from a healthy volunteer donor) of human origin have been described earlier (Li et al. 2003). The K562 (chronic myelogenous leukemia) cells were purchased from American Type Culture Collection.
(§2) The cells were maintained in logarithmic growth phase in IMDM medium (Invitrogen, Paisley, UK) supplemented with 10% fetal calf serum and antibiotics in a humidified incubator at +37° C., 5% CO2. The adherent cells lines were harvested for experiments with 0.25% trypsin-EDTA in PBS for 5 min and then resuspended and washed in medium. After counting of viable cells, 15,000 to 75,000 cells were transferred into flat-bottom 96-well cell culture plates in a volume of 100 or 150 μl.
(§3) The proliferation activity of cultured cell lines was quantified in flat-bottom 96-well plates with a modified colorimetric assay based on a tetrazolium derivative (CellTiter 96 Aqueous One Solution Cell Proliferation Assay, Promega). The cells were cultured in the presence of camptothecin and/or cis-UCA for 20 to 92 h, then the proliferation reagent was added for 2 h, and the absorbance at 490 nm was measured in a plate reader. […]

A2058 cells = assay: Monitoring of intracellular pH (BCECF, flow cytometry), A2058 cells; assay type: cell-based, human
Procedure: (§4) The cells were labelled with BCECF and placed in pH-adjusted buffer solutions with or without various concentrations of cis-UCA. Left panels, calibration of BCECF fluorescence intensity of nigericin-treated cells in high-potassium buffer as a function of buffer pH. Right panels, intracellular pH values in buffers with or without various concentrations of cis-UCA. All test buffers were adjusted to pH 7.4 (%) or pH 6.5 (+) after the addition of cis-UCA. Results were calculated using the corresponding calibration curve on the left.
(§5) Intracellular pH in the cell lines in the presence of cis-UCA was measured with the pH-sensitive fluorescent dye 2′,7′-bis-(2-carboxyethyl)-5-(and-6)-carboxyfluorescein (BCECF, acetoxymethyl ester; Molecular Probes, Leiden, The Netherlands) by flow cytometry. Two million cells were incubated in 5 ml DMEM medium (Invitrogen), pH 7.4, containing 0.35 μM BCECF at 37° C. for 30 min, washed once in sodium phosphate buffer (50 mM NaH2PO4/Na2HPO4, 43 mM NaCl), pH 7.4, and resuspended in 0.3 ml saline. Twenty μl of the cell suspension was pipetted into flow cytometry tubes. […]
(§6) Calibration of intracellular pH in situ was performed using the K^+/H^+ ionophore nigericin (Molecular Probes) in high-potassium buffers. […] Exact intracellular pH values were calculated from mean BCECF fluorescence intensities by reference with nigericin-clamped calibration cells. […]

HeLa cells = assay: Monitoring of intracellular pH (BCECF, flow cytometry), HeLa cells; assay type: cell-based, human
Procedure: as §4, §5, §6

[1] = tested on: HT-1080 (epithelial fibrosarcoma); assay: Proliferation assay (CellTiter 96), HT-1080 cells; assay type: cell-based, human; conditions: pH 6.5, 44 h, cis-UCA 10 mM, CPT 2 μM, 15,000 cells per 100 μl
Source text: as §1, §2, §3

caspase-3 = assay: Determination of caspase-3 activity in A2058 melanoma cells; assay type: cell-based, human; conditions: 30 mM cis-UCA in pH 6.5 medium, at 2 h
Procedure: The cells were allowed to attach to culture flasks at 5×10^6 cells per 7 ml of medium overnight. The medium was then changed to new medium adjusted to pH 6.5 with or without 30 mM cis-UCA. The cells were incubated for 30 min to 18 h, released with trypsin-EDTA, and lysed for caspase-3 assay. After subtracting the blank values, the mean caspase-3 activity from the cis-UCA-treated cells was divided by the mean value from the corresponding control cells with the same incubation time. The data are the mean±SD from three parallel reactions in the caspase-3 assay.
Caspase-3 is a proteolytic enzyme that has a central role in the apoptotic cascade. The colorimetric assay is based on the hydrolysis of the peptide substrate acetyl-Asp-Glu-Val-Asp p-nitroanilide (Ac-DEVD-pNA) by caspase-3, resulting in the release of p-nitroaniline (pNA).
Cells grown in normal medium were counted and divided into separate cell culture flasks containing 1 μM CPT, 10 mM cis-UCA, or both, in pH 6.5 medium. […] Caspase-3 activity was measured in cell lysates. […] After washing with ice-cold PBS, the counted cells were resuspend in cell lysis buffer (50 mM Hepes, pH 7.4, 5 mM CHAPS, and 5 mM dithiotreitol) in a density of 10^8 cells/ml, incubated on ice for 15-20 min, and the cell lysates pelleted at 15,000×g for 20 min at 4° C. […] Absorbance of the formed end product p-nitroaniline (pNA) was recorded at 405 nm after 2 and 17 h.

[2] = tested on: K562 (chronic myelogenous leukemia); assay: Proliferation assay (CellTiter 96), K562 cells; assay type: cell-based, human; conditions: pH 6.5, 44 h, cis-UCA 10 mM, CPT 2 μM, 15,000 cells per 100 μl
Source text: as §1, §2, §3

[3] = tested on: human polymorphonuclear neutrophils; conditions: extracellular pH range 6.1 to 7.0; patent application US2006035973; cited from earlier work
[4] = extracellular pH 6.5, highest cis-UCA concentration (30 mM)
[5] = extracellular pH 7.4, cis-UCA up to 30 mM

With `O=C(O)/C=C\c1c[nH]cn1` [cis-UCA, cis-urocanic acid] the “Inhibition of proliferation (mean percentage inhibition ± SD compared with untreated control)” value (HSF (skin fibroblast)) was 41 ± 1.1%, the “decrease of intracellular pH” value (A2058 cells; [4]) was “about 0.25 pH units” and the “intracellular pH with escalating concentrations” value (A2058 cells; [5]) was “remained almost constant”. For the same compound, the “decrease of intracellular pH” value (HeLa cells; [4]) was “about 0.25 pH units”, the “intracellular pH with escalating concentrations” value (HeLa cells; [5]) was “remained almost constant” and the “Inhibition of proliferation (mean percentage inhibition ± SD compared with untreated control)” value [1] was 47 ± 0.5%. For the same compound, the “peak caspase-3 activity compared to cells treated with pH 6.5 medium only” value (caspase-3) was 380%, the “Inhibition of proliferation (mean percentage inhibition ± SD compared with untreated control)” value [2] was 26 ± 2.9% and the “effect on the intracellular pH of neutrophils” value [3] was “affected the intracellular pH”.
